pIC50: −log10 of the molar value.
Test system: NCI-H196 SCLC complex tumor spheroid viability
Experiment: Anticancer human tumor NCI-H196 cell line growth inhibition;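 also: spheroids exposed to compounds for 7 days before readout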;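 as to viability, T/C: 100% = DMSO vehicle control wells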
Conditions: for pIC50: curve of first compound; for viability, T/C: stronger effect = lower value
Outline: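 Complex spheroids of malignant cells with endothelial cells and mesenchymal stem cells; agents alone or combined, from near clinical Cmax (or 10 microM if unknown) down in half-log steps, 0.25% DMSO final.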

[1] = second compound 0.003 µM, first compound 0.0316 µM
[2] = second compound 0.003 µM, first compound 0.1 µM
[3] = second compound 0.003 µM, first compound 0.316 µM
[4] = second compound 0.003 µM, first compound 1 µM
[5] = second compound 0.003 µM, first compound 3.16 µM
[6] = second compound 0.003 µM, first compound 10 µM
[7] = second compound 0.00949 µM, first compound 0.0316 µM
[8] = second compound 0.00949 µM, first compound 0.1 µM
[9] = second compound 0.00949 µM, first compound 0.316 µM
[10] = second compound 0.00949 µM, first compound 1 µM
[11] = second compound 0.00949 µM, first compound 3.16 µM
[12] = second compound 0.00949 µM, first compound 10 µM
[13] = second compound 0.03 µM, first compound 0.0316 µM
[14] = second compound 0.03 µM, first compound 0.1 µM
[15] = second compound 0.03 µM, first compound 0.316 µM
[16] = second compound 0.03 µM, first compound 1 µM
[17] = second compound 0.03 µM, first compound 3.16 µM
[18] = second compound 0.03 µM, first compound 10 µM
[19] = second compound 0.0949 µM, first compound 0.0316 µM
[20] = second compound 0.0949 µM, first compound 0.1 µM
[21] = second compound 0.0949 µM, first compound 0.316 µM
[22] = second compound 0.0949 µM, first compound 1 µM
[23] = second compound 0.0949 µM, first compound 3.16 µM
[24] = second compound 0.0949 µM, first compound 10 µM
[25] = second compound 0.3 µM, first compound 0.0316 µM
[26] = second compound 0.3 µM, first compound 0.1 µM
[27] = second compound 0.3 µM, first compound 0.316 µM
[28] = second compound 0.3 µM, first compound 1 µM
[29] = second compound 0.3 µM, first compound 3.16 µM
[30] = second compound 0.3 µM, first compound 10 µM

| Compound | pIC50 (second compound 0.003 µM) | pIC50 (second compound 0.00949 µM) | pIC50 (second compound 0.03 µM) | pIC50 (second compound 0.0949 µM) | pIC50 (second compound 0.3 µM) | viability, T/C [1] [%] | viability, T/C [2] [%] | viability, T/C [3] [%] | viability, T/C [4] [%] | viability, T/C [5] [%] | viability, T/C [6] [%] | viability, T/C [7] [%] | viability, T/C [8] [%] | viability, T/C [9] [%] | viability, T/C [10] [%] | viability, T/C [11] [%] | viability, T/C [12] [%] | viability, T/C [13] [%] | viability, T/C [14] [%] | viability, T/C [15] [%] | further results |
| --- | --- | --- | --- | --- | --- | --- | --- | --- | --- | --- | --- | --- | --- | --- | --- | --- | --- | --- | --- | --- | --- |
| Cc1cc(C)c(CNC(=O)c2cc(-c3ccc(CN4CCOCC4)cc3)cc3c2cnn3C2CCCC2)c(=O)[nH]1 + CC[C@@]1(O)C(=O)OCc2c1cc1n(c2=O)Cc2cc3c(CN(C)C)c(O)ccc3nc2-1 | < 5.00 | < 5.00 | < 5.00 | < 5.00 | < 5.00 | 99.4 | 94.9 | 102 | 95.6 | 101 | 104 | 96.5 | 105 | 99.9 | 88.7 | 94.7 | 96.5 | 91.8 | 96.1 | 98.4 | viability, T/C [16]: 93%; viability, T/C [17]: 97.5%; viability, T/C [18]: 112%; viability, T/C [19]: 102%; viability, T/C [20]: 101%; viability, T/C [21]: 108%; viability, T/C [22]: 98.5%; viability, T/C [23]: 97%; viability, T/C [24]: 98.6%; viability, T/C [25]: 95.6%; viability, T/C [26]: 87.7%; viability, T/C [27]: 86.1%; viability, T/C [28]: 87.9%; viability, T/C [29]: 79.9%; viability, T/C [30]: 86.9% |
| [2H]c1nc(C)nc([2H])c1-c1cc(NC[C@@H](C)c2cccc3c(C(=O)NC)ccnc23)ncn1 + CC[C@@]1(O)C(=O)OCc2c1cc1n(c2=O)Cc2cc3c(CN(C)C)c(O)ccc3nc2-1 | < 5.00 | < 5.00 | < 5.00 | < 5.00 | < 5.00 | 103 | 104 | 92.5 | 97.2 | 106 | 100 | 100 | 96.5 | 91.8 | 95.5 | 99.7 | 100 | 96.8 | 102 | 95.4 | viability, T/C [16]: 93.4%; viability, T/C [17]: 95.5%; viability, T/C [18]: 94.6%; viability, T/C [19]: 99.4%; viability, T/C [20]: 102%; viability, T/C [21]: 107%; viability, T/C [22]: 102%; viability, T/C [23]: 100%; viability, T/C [24]: 102%; viability, T/C [25]: 109%; viability, T/C [26]: 103%; viability, T/C [27]: 94.8%; viability, T/C [28]: 105%; viability, T/C [29]: 104%; viability, T/C [30]: 100% |

Reference: PubChem BioAssay AID1845208 (Molecular Pharmacology Branch, DTP, NCI, 2023)
